In patent US7820678B2, “Sodium channel blockers” (Parion Sciences, Inc., priority 2003, dated 2010):

melting point: 174 to 176 °C (dec.)
SMILES: CS(=O)(=O)N(c1ccc(CCCCNC(=N)NC(=O)c2nc(Cl)c(N)nc2N)cc1)S(C)(=O)=O [Example 4, N-(3,5-Diamino-6-chloropyrazine-2-carbonyl)-N′-[4-(4-bis(methanesulfonyl)aminophenyl)butyl]guanidine]
